The source of these data is ChEMBL document CHEMBL1153400, “Fluorinated isatin derivatives. Part 1: synthesis of new N-substituted (S)-5-[1-(2-methoxymethylpyrrolidinyl)sulfonyl]isatins as potent caspase-3 and -7 inhibitors” (Bioorg Med Chem, 2009).

The target in one experiment is T1, Caspase-3 (Homo sapiens, UniProt P42574).
T1 sequence (P42574 whole entry): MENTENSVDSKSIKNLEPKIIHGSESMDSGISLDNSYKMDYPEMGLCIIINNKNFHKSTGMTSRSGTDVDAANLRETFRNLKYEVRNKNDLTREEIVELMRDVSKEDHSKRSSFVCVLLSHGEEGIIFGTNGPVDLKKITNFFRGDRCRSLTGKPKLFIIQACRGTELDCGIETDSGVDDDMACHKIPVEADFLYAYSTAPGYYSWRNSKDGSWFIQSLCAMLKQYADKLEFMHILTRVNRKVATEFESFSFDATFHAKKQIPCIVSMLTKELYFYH
Put plainly: Inhibition of human recombinant caspase 3.

In a further experiment the target is T2, Caspase-7 (Homo sapiens, UniProt P55210).
T2 sequence (P55210 whole entry): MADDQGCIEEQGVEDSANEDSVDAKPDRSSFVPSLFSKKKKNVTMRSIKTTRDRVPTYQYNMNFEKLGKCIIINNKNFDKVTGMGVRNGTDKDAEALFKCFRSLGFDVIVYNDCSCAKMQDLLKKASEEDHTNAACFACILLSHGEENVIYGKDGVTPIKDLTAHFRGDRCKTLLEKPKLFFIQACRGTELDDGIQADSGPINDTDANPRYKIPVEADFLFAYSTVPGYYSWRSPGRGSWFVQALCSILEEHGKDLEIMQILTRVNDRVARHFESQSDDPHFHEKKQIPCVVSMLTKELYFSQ
Description: Inhibition of human recombinant caspase 7.

With `COC[C@@H]1CCCN1S(=O)(=O)c1ccc2c(c1)C(=O)C(=O)N2CCCOCCCOS(C)(=O)=O`, the IC50 on Caspase-3 and at Caspase-7 was over 100000 nM each time.

As for `COC[C@@H]1CCCN1S(=O)(=O)c1ccc2c(c1)C(=O)C(=O)N2CCCOCCCF`, the concentration for half-maximal inhibition (IC50) on Caspase-3 and at Caspase-7 was over 100000 nM throughout.

Take `COC[C@@H]1CCCN1S(=O)(=O)c1ccc2c(c1)C(=O)C(=O)N2CCCOCCCO`: on Caspase-7, the IC50 was determined as 113000 nM.

Regarding `CCCN1C(=O)C(=O)c2cc(S(=O)(=O)N3CCC[C@H]3COC)ccc21`, the IC50 came out at 5.3 nM on Caspase-3 and 58 nM at Caspase-7.

As to `COC[C@@H]1CCCN1S(=O)(=O)c1ccc2c(c1)C(=O)C(=O)N2CCCCF`, the values for the IC50 at Caspase-3 and on Caspase-7 were 41 nM and 28 nM, respectively.

With `CCN1C(=O)C(=O)c2cc(S(=O)(=O)N3CCC[C@H]3COC)ccc21`, the results for the IC50 on Caspase-3 and on Caspase-7 were 183 nM and 319 nM, respectively.

As for `CCCCN1C(=O)C(=O)c2cc(S(=O)(=O)N3CCC[C@H]3COC)ccc21`, the 50% inhibitory concentration (IC50) on Caspase-3 was 29 nM; at Caspase-7, 8.1 nM.

On to `CCCN1C(=O)C(F)(F)c2cc(S(=O)(=O)N3CCC[C@H]3COC)ccc21`, for which the IC50 on Caspase-3 and at Caspase-7 was over 100000 nM in each case.

Regarding `COC[C@@H]1CCCN1S(=O)(=O)c1ccc2c(c1)C(=O)C(=O)N2`, the 50% inhibitory concentration (IC50) at Caspase-7 was found to be 170 nM.

For orientation: IC50 means the point on the concentration scale where inhibition reaches its midpoint.
